{"source": "patent US20130115671A1", "about": "“ENZYMES FROM CONIDIOBOLUS BREFELDIANUS AND PROCESS FOR PREPARATION THEREOF” (Council of Scientific and Industrial Research, priority 2010, published 2013)", "key": {"[1]": {"tested_on": "protease from Conidiobolus brefeldianus MTCC 5185", "assay": "Stability of protease in presence of organic solvents at 28° C.", "assay_type": "physicochemical", "set-up": "key to residual activity of protease, 0 h / residual activity of protease, 12 h: % of initial activity with respective solvent (initial = 100%)", "conditions": "crude protease, 20% (v/v) solvent", "method": "This example illustrates the effect of water miscible as well as water immiscible organic solvents on stability of crude protease at 28° C. […] Samples were removed at different time intervals and residual activity was estimated. Sample without organic solvent served as control. Initial activity with respective solvents was taken as 100% (Table 17). […] (Table 17)."}, "[2]": {"tested_on": "protease from Conidiobolus brefeldianus MTCC 5185", "assay": "Stability of protease in presence of organic solvents at 37° C.", "assay_type": "physicochemical", "conditions": "20% (v/v) solvent; for Residual Activity (%) of protease, 30 min: pH 7, 30 min; for Residual Activity (%) of protease, 60 min: pH 7, 60 min; for Residual Activity (%) of protease, 120 min: pH 7, 120 min; for Residual Activity (%) of protease, 240 min: pH 7, 240 min; for Residual Activity (%) of protease, 0: crude protease, pH 7, 0 min", "method": "This example illustrates the effect of water miscible as well as water immiscible organic solvents on stability of crude protease at 37° C. […] Samples were removed at different time intervals and residual activity was estimated. Sample without organic solvent served as control."}, "[3]": {"tested_on": "protease of Conidiobolus brefeldianus MTCC 5185", "assay": "Effect of inhibitors on protease activity (PMSF, EDTA, iodoacetate, DMSO)", "assay_type": "biochemical", "source_text": "This example illustrates the effect of inhibitors on protease activity of Conidiobolus brefeldianus MTCC 5185. Following inhibitors were studied: phenylmethylsulfonyl fluoride (PMSF), ethylene-diaminetetraacetic acid (EDTA), iodoacetic acid, and dimeth ylsulphoxide (DMSO). The crude culture filtrate grown as described in example 3 was concentrated by ultra-filtration on PM-10 and YM-3 membranes as described in example 27 and used for inhibition studies. Both the protease preparations were pre-incubated in 100 mM Tris-HCl buffer (pH 8.0) with each inhibitor for 1 h and the residual protease activity was measured at 50° C., pH 9.0. Protease without inhibitor served as control."}, "[4]": {"tested_on": "protease of Conidiobolus brefeldianus MTCC 5185", "assay": "Effect of inhibitors on protease activity (TPCK, TLCK, Benzamidine)", "assay_type": "biochemical", "conditions": "5 mM inhibitor, crude protease pre-incubated 30 min, pH 8.0", "method": "This example illustrates the effect of inhibitors on protease activity of Conidiobolus brefeldianus MTCC 5185. Following inhibitors were studied: N-tosyl-L-phenylalanine chloromethyl ketone (TPCK), N-tosyl-L-lysine chloromethyl ketone (TLCK), and Benzamidine. Crude protease was pre-incubated with each inhibitor in 100 mM Tris-HCl buffer (pH 8.0) for 30 min and the residual protease activity was measured 50° C., pH 9.0. Protease without inhibitor served as control."}, "[5]": {"conditions": "pre-incubated 1 h, pH 8.0, 20 mM EDTA, 10 mM Iodoacetate, 1 mM PMSF (in DMSO), DMSO"}}, "note": "Several values for one entry are separate records, joined by “and”; a condition that tells them apart may be missing. Equal values may be shown once."}
{"compound": "C[S+](C)[O-]", "note": "[DMSO, dimethylsulphoxide]", "values": [{"measurement": "residual activity of protease, 0 h", "setting": "[1]", "result": 100}, {"measurement": "residual activity of protease, 5 h", "setting": "[1]", "result": 98.12}, {"measurement": "residual activity of protease, 12 h", "setting": "[1]", "result": 54.55}, {"measurement": "Residual Activity (%) of protease, 30 min", "setting": "[2]", "result": 69.48, "unit": "%"}, {"measurement": "Residual Activity (%) of protease, 60 min", "setting": "[2]", "result": 68.94, "unit": "%"}, {"measurement": "Residual Activity (%) of protease, 120 min", "setting": "[2]", "result": 48.70, "unit": "%"}, {"measurement": "Residual Activity (%) of protease, 240 min", "setting": "[2]", "result": 28.53, "unit": "%"}, {"measurement": "Residual Activity (%) of protease, 0", "setting": "[2]", "result": 100, "unit": "%"}, {"measurement": "Inhibition (%) PM-10 Retentate", "setting": "[3]; [5]", "result": 3.02, "unit": "%"}, {"measurement": "Inhibition (%) YM-3 Retentate", "setting": "[3]; [5]", "result": 1.37, "unit": "%"}]}
{"compound": "O=C(O)CN(CCN(CC(=O)O)CC(=O)O)CC(=O)O", "note": "[EDTA, ethylene-diaminetetraacetic acid]", "values": [{"measurement": "Inhibition (%) PM-10 Retentate", "setting": "[3]; [5]", "result": 0.0, "unit": "%"}, {"measurement": "Inhibition (%) YM-3 Retentate", "setting": "[3]; [5]", "result": 3.93, "unit": "%"}]}
{"compound": "O=C(O)CI", "note": "[Iodoacetate, iodoacetic acid]", "values": [{"measurement": "Inhibition (%) PM-10 Retentate", "setting": "[3]; pH 8", "result": 0.0, "unit": "%"}, {"measurement": "Inhibition (%) YM-3 Retentate", "setting": "[3]; pH 8", "result": 16.54, "unit": "%"}]}
{"compound": "CO", "note": "[Methanol, methanol]", "values": [{"measurement": "residual activity of protease, 0 h", "setting": "[1]", "result": 100}, {"measurement": "residual activity of protease, 5 h", "setting": "[1]", "result": 100.13}, {"measurement": "residual activity of protease, 12 h", "setting": "[1]", "result": 52.64}, {"measurement": "Residual Activity (%) of protease, 30 min", "setting": "[2]", "result": 59.43, "unit": "%"}, {"measurement": "Residual Activity (%) of protease, 60 min", "setting": "[2]", "result": 59.45, "unit": "%"}, {"measurement": "Residual Activity (%) of protease, 120 min", "setting": "[2]", "result": 48.36, "unit": "%"}, {"measurement": "Residual Activity (%) of protease, 240 min", "setting": "[2]", "result": 16.60, "unit": "%"}, {"measurement": "Residual Activity (%) of protease, 0", "setting": "[2]", "result": 100, "unit": "%"}]}
{"compound": "O=S(=O)(F)Cc1ccccc1", "note": "[PMSF, phenylmethylsulfonyl fluoride]", "values": [{"measurement": "inhibition of protease", "setting": "[3]; 1 mM PMSF", "result": "completely inhibited"}, {"measurement": "Inhibition (%) PM-10 Retentate", "setting": "[3]; [5]", "result": 79.27, "unit": "%"}, {"measurement": "Inhibition (%) YM-3 Retentate", "setting": "[3]; [5]", "result": 90.24, "unit": "%"}]}
{"compound": "N-tosyl-L-lysine chloromethyl ketone [TLCK]", "values": [{"measurement": "Inhibition (%)", "setting": "[4]", "result": "29% and 29.22%"}]}
{"compound": "N-tosyl-L-phenylalanine chloromethyl ketone [TPCK]", "values": [{"measurement": "Inhibition (%)", "setting": "[4]", "result": "9% and 9.02%"}]}
